Source: patent US20230226040A1, “COMBINATION THERAPY COMPRISING AN FGFR INHIBITOR AND A KRAS INHIBITOR” (Incyte Corporation, priority 2021, published 2023)
“And” between values parts separate entries of the source, which are not always exact repeats. Equal entries are not always repeated.

Assays:
[1] = tested on: SW-1573; test: 5-day Cell Titer Glo combination matrix, Bliss score; format: cell-based; settings: SW-1573 (Lung, Mesenchymal); KRAS inhibitor in combination with pemigatinib; 5 days
Method: (§2) Cells were seeded in RPMI medium with 10% HI FBS at a density of 500 cells/well in Greiner, white, clear bottom, 384-well tissue culture treated plates containing 10×10 combination matrices of compound. Plates were incubated at 37° C., 5% CO2 for 5 days. On day 5, Cell Titer Glo reagent was added to the plates and ATP luminescence was detected using a Pherastar FSX reader. The synergy score for the combination effect was calculated using a Bliss score model where the Bliss score=Yab-(Ya+Yb−(YaYb))×100, where Ya and Yb are the monotherapies. Bliss scores >20 are strongly synergistic and a higher Bliss scores indicates a higher level of synergism.
(§3) Cells were seeded in RPMI medium with 10% HI FBS at a density of 500 cells/well in Greiner, white, clear bottom, 384-well tissue culture treated plates containing 10×10 combination matrices of compound. Plates were incubated at 37° C., 5% CO2 for 5 days. On day 5, Cell Titer Glo reagent was added to the plates and ATP luminescence was detected using a Pherastar FSX reader. Synergy score for the combination effect is calculated using a Bliss score model where the Bliss score=Yab−(Ya+Yb−(YaYb))×100, where Ya and Yb are the monotherapies. Bliss scores >20 are strongly synergistic and a higher Bliss scores indicates a higher level of synergism.
(§4) Cells were seeded in RPMI medium with 10% HI FBS at a density of 500 cells/well in Greiner, white, clear bottom, 384-well tissue culture treated plates containing 10×10 combination matrices of compound. Plates were incubated at 37° C., 5% CO2 for 5 days. On day 5, Cell Titer Glo reagent was added to the plates and ATP luminescence was detected using a Pherastar FSX reader. The synergy score for the combination effect was calculated using a Bliss score model where the Bliss score=Yab−(Ya+Yb−(YaYb))×100, where Ya and Yb are the monotherapies. Bliss scores >20 are strongly synergistic and a higher Bliss scores indicates a higher level of synergism.

[2] = tested on: H358; test: as above; format: cell-based; settings: H358 (Lung, Epithelial); KRAS inhibitor in combination with pemigatinib; 5 days
Method: as §2, §3, §4

[3] = tested on: pFRS2a; test: Western blot of pFRS2a in LU99 cell lysate (90 hours treatment); format: cell-based; settings: LU99 cells; 50 nM KRAS G12C inhibitor alone
Source text: FGFR1 and downstream activation marker pFRS2a protein levels were examined in indicated cell lines, as well as markers for epithelial-like cells (E-cadherin) and mesenchymal-like cells (Vimentin).

[4] = tested on: HCC-44; test: 5-day Cell Titer Glo combination matrix, Bliss score; format: cell-based; settings: HCC-44 (Lung, Mesenchymal); KRAS inhibitor in combination with pemigatinib; 5 days
Method: as §2, §4

[5] = tested on: H1792; test: as above; format: cell-based; settings: H1792 (Lung, Mesenchymal); KRAS inhibitor in combination with pemigatinib; 5 days
Method: as §2, §3, §4

[6] = tested on: LU99 cells; test: siRNA FGFR knockdown plus KRAS G12C inhibitor, Cell Titer Glo proliferation; format: cell-based; settings: 120 h
Method: Knockdown efficiency was assessed by Western blot and its effect was measured by cell proliferation inhibition.
The lyophilized siRNA pools or individuals (Dharmacon ON-TARGET plus siRNA from Horizon Discovery) were reconstituted by combining 1× siRNA buffer (200 μL) with lyophilized siRNA (20 nmol); or combining 1× siRNA buffer (100 μL) with lyophilized siRNA (10 nmol). Dharmafect Reagent 1 was prepared at a 1:200 dilution in 1X siRNA buffer. One tube of diluted reagent was prepared for each siRNA dilution. To each tube, the appropriate siRNA was added to Dharmafect Reagent 1 at a 1:400 dilution. The prepared siRNA reagent ([…]) was added to the appropriate number of wells on a 96-well clear bottom Greiner plate and incubated at room temperature for 30 min.
For plating in 96-well pates, 2000 LU99 cells per well in 100 μL of medium were prepared. The prepared cells (100 μL per well) were added to each well of the 96-well plate and incubated at 48 h.
Compound plates were prepared with a compound starting concentration of 5 mM in a 3-fold dilution. Following 48 h transfection incubation, the appropriate compounds were added to the 96-well plate at a final starting concentration of 5 μM in 3-fold dilution (11 point dose response curve). After addition of the compounds, the 96-well plates were incubated at 37° C. for 120 h. After this time, Cell Titer Glo reagent is reconstituted and 100 μL of reagent was added per well. The plates were tapped gently and luminescence was read on a Pherastar microplate reader.

[7] = tested on: LU99 lung cancer xenograft; test: LU99 xenograft model, tumor growth inhibition; format: in vivo; settings: NCr nude mice; AMG510 20 mg/kg, pemigatinib 0.3 mg/kg, alone or combined; oral QD, 30 days; last day of treatment
Method: The in vivo effect of combining the FGFR1 inhibitor pemigatinib plus the KRAS G12C inhibitor AMG510 was assessed in the LU99 lung cancer model (JCRB0080, JCRB) xenograft model (FIG. 3) in 6 to 8 week old female NCr nude mice (Taconic). Pemigatinib and AMG510 were suspended in 5% N,N-dimethyl acetamide (DMAC)+50 mM Citrate buffer (pH 3.0) in 0.5% methyl cellulose for oral administration. Briefly, mice were inoculated in the left flank with 1×10^7 LU99 cells re-suspended in a PBS and matrigel (Corning Life Sciences, Tewksbury, Mass) solution at 1:1. On Day 7, mice were randomized into 4 groups of 10 mice at approximate mean volume (˜212 mm^3). […] Tumor growth inhibition was calculated using the formula (1−(VT/VC))×100, where VT is the tumor volume of the treatment group on the last day of treatment, and Vc is the tumor volume of the control group on the last day of treatment. […] Statistics were determined using One-Way ANOVA.
Briefly, mice were inoculated in the left flank with 1×10^7LU99 cells re-suspended in a PBS and matrigel (Corning Life Sciences, Tewksbury, Mass) solution at 1:1. […] TGI was calculated using the formula (1−(VT/VC))×100, where VT is the tumor volume of the treatment group on the last day of treatment, and VC is the tumor volume of the control group on the last day of treatment. […]

[8] = tested on: Calu-1; test: 5-day Cell Titer Glo combination matrix, Bliss score; format: cell-based; settings: Calu-1 (Lung, Mesenchymal); KRAS inhibitor in combination with pemigatinib; 5 days
Method: as §2

[9] = tested on: MiaPaca2 KRAS G12C resistant clone 28; test: 5-day Cell Titer Glo viability and Bliss score; format: cell-based; settings: 5-day CTG
Method: (§1) For G12C resistant clone generation, MiaPaca2 parent cells were cultured with increasing concentrations of AMG510 (up to 1μM) over time. The viable cells were re-fed fresh media containing AMG510 weekly. Once the AMG510 resistant cells were growing at normal rates in the presence of 1μM AMG510, they were cloned by limiting dilution. Eight clones were selected for continued passage and further experiments.

[10] = tested on: MiaPaca2 KRAS G12C resistant clone 23; test: 5-day Cell Titer Glo viability and Bliss score; format: cell-based; settings: 5-day CTG
Method: as §1

[11] = tested on: MiaPaca2 KRAS G12C resistant clone 11; test: 5-day Cell Titer Glo viability and Bliss score; format: cell-based; settings: CLONE 11, 5-day CTG
Method: as §1

[12] = tested on: MiaPaca2 KRAS G12C resistant clone 7; test: 5-day Cell Titer Glo viability and Bliss score; format: cell-based; settings: 5-day CTG
Method: as §1

[13] = tested on: SW-837; test: 5-day Cell Titer Glo combination matrix, Bliss score; format: cell-based; settings: SW-837 (CRC, Epithelial); KRAS inhibitor in combination with pemigatinib; 5 days
Method: as §2, §4

[14] = tested on: pFRS2a; test: Western blot of pFRS2a in LU99 cells (24 hours treatment, with or without rhFGF); format: cell-based; settings: 100 nM KRAS G12C inhibitor, with or without rhFGF stimulation
Method: LU99 cells were treated with 100 nM of Compound 2, pemigatinib, Compound 1, or indication combination for 24 hours, and with or without lng/ml recombinant human FGF (rhFGF) before harvesting the lysate.
Cells were seeded in Corning 6-well tissue culture treated plates in RPMI medium with 10% FBS at 6×10^5 cells/well. After 48 hours, cells were or treated with indicated compounds for 24 hours at 37° C., 5% CO2. rhFGF—basic (R&D systems 233-FB) was added at 1 nG/ml for 15 minutes at the end of the experiment as indicated. The cells were washed with PBS and lysed with 1x lysis buffer (Cell Signaling #9803) with protease and phosphatase inhibitors. Twenty-five μg of total protein lysates was subjected to SDS-PAGE and immunoblot analysis using the following Cell Signaling antibodies: pERK (#4370) phospho-FRS2a (#3861) and beta-Actin (#12620).
Cells were seeded in Corning 6-well tissue culture treated plates in RPMI medium with 10% FBS at 6x10^5 cells/well. After 48 hours, cells were or treated with indicated compounds for 24 hours at 37° C., 5% CO2. rhFGF—basic (R&D systems 233-FB) was added at 1 nG/ml for 15 minutes at the end of the experiment as indicated. The cells were washed with PBS and lysed with 1× lysis buffer (Cell Signaling #9803) with protease and phosphatase inhibitors. […]

[15] = in the absence of FGFR1, FGFR2 or FGFR3

In the case of C=CC(=O)N1CCN(c2nc(=O)n(-c3c(C)ccnc3C(C)C)c3nc(-c4c(O)cccc4F)c(F)cc23)[C@@H](C)C1 [AMG-510], the “Avg. Bliss Score” value [1] is reported as 25.9, the “Avg. Bliss Score” value [2] is reported as 3.7 and the “protein level of pFRS2a” value [3] is reported as “elevated the protein level of pFRS2a”. The “Avg. Bliss Score” value [4] was 4.4, the “Avg. Bliss Score” value [5] was 26.7 and the “inhibition of LU99 cell proliferation after siRNA knockdown” value (“inhibition of LU99 cell proliferation” below) [6, 15] was “higher inhibition in proliferation”. The “inhibition of LU99 cell proliferation” value ([6]; in the absence of FGFR1 or FGFR4) was “higher inhibition in proliferation”, the “TGI (tumor growth inhibition)” value [7] was 66% and the “Avg. Bliss Score” value [8] was 11.2. The “% viability, G12C i 111 nM” value ([9]; G12C i alone (Compound 1 arm)) was 77.5%, the “% viability, G12C i 111 nM” value ([9]; G12C i alone (Pemi arm)) was 69.6% and the “% viability, G12C i 111 nM” value ([10]; G12C i alone (Compound 1 arm)) was 83.9%. For the same compound, the “% viability, G12C i 111 nM” value ([10]; G12C i alone (Pemi arm)) was 90.9%, the “% viability, G12C i 111 nM” value ([11]; G12C i alone (Compound 1 arm)) was 63% and the “% viability, G12C i 111 nM” value ([11]; G12C i alone (Pemi arm)) was 67%. The “% viability, G12C i 111 nM” value ([12]; Average, G12C i alone (Compound 1 arm)) was 77.6%, the “% viability, G12C i 111 nM” value ([12]; Average, G12C i alone (Pemi arm)) was 77.8% and the “% viability, G12C i 111 nM” value ([12]; G12C i alone (Compound 1 arm), single experiments) was 67.1% and 88%. For the same compound, the “% viability, G12C i 111 nM” value ([12]; G12C i alone (Pemi arm), single experiments) was 69.6% and 90% and 73.7% and the “Avg. Bliss Score” value [13] was −7.7.

COC/C=C/C(=O)N1CC[C@H](n2nnc3c(N4CC(C)(N(C)C)C4)nc4c(F)c(-c5ccc(F)c6cccnc56)c(C(F)(F)F)cc4c32)C[C@H]1CC#N [Compound 2, 2-((2S,4S)-4-(4-(3-(dimethylamino)-3-methylazetidin-1-yl)-6-fluoro-7-(5-fluoroquinolin-8-yl)-8-(trifluoromethyl)-1H-[1,2,3]triazolo[4,5-c]quinolin-1-yl)-1-((E)-4-methoxybut-2-enoyl)piperidin-2-yl)acetonitrile] was tested, and the pFRS2a signaling [14] was “elevated”, the “protein level of pFRS2a” value [3] was “elevated the protein level of pFRS2a” and the “inhibition of LU99 cell proliferation” value ([6]; all FGFR isoforms knocked down, in particular in the absence of FGFR1 and FGFR2) was “higher inhibition in proliferation”. For the same compound, the “inhibition of LU99 cell proliferation” value [6, 15] was “higher inhibition in proliferation”.
